In general, AUC refers to the area under the concentration-time curve, a measure of exposure. A low value points to low exposure.

The text below walks through data of patent publication US4755598A, “1 '-(substituted)ethyl-7β-[2-(2-aminothiazol-4-yl)acetamido]-3-[[[1-(2 -dimethylaminoethyl)-1H-tetrazol-5-yl]thio]methyl]ceph-3-em-4-carboxylate derivatives having antibacterial utility” (Takeda Chemical Industries, Ltd., priority 1983, dated 1988).

Like-named read-outs stand apart in the source and are kept apart here.

For series [1] the following is noted: mouse, in vivo; for Plasma level of non-ester compound / AUC: po, 100 mg/kg. The method, then: The compounds of Examples 2, 4, 6, 7 and 8 and the 1-(ethoxycarbonyloxy)ethyl ester of compound [II] (briefly, compound A) are each administered orally to a mouse in a dose of 100 mg/kg in terms of non-ester compound, i.e., compound [II]. At 0.25, 0.5, 1.0 and 2.0 hours after administration, the concentration of the non-ester compound in the mouse plasma is determined by the cup assay using Proteus mirabilis Eb313 as the test organism and the area under the concentration-time curve for 0-2 hours (AUC) is calculated.
As control, the non-ester compound is administered subcutaneously to a mouse and the AUC value is similarly calculated.

Series [2] relates to gram-positive bacteria such as Staphylococcus aureus. As to conditions: cited from earlier work.
The subject of series [3] is bacteria. To be noted: cited from earlier work.
For series [4], the system named is gram-negative bacteria such as Escherichia coli, Klebsiella pneumoniae, Proteus vulgaris, Proteus mirabilis and Proteus morganii. To be noted: cited from earlier work.

Compound `CCOC(=O)OC(C)OC(=O)C1=C(CSc2nnnn2CCN(C)C)CS[C@@H]2[C@H](NC(=O)Cc3csc(N)n3)C(=O)N12` (stereo partly shown) [Compound A, 1-(ethoxycarbonyloxy)ethyl ester of compound [II], reference compound] displayed a Bioavailability in series [1] (120 min) of 23.9%. Moreover, the “Plasma level of non-ester compound” value in series [1] (15 min) turned out to be 14700 ng/mL; in series [1] (30 min), 9200 ng/mL; in series [1] (60 min), 2400 ng/mL; in series [1] (120 min), 700 ng/mL. The same compound came in with an AUC in series [1] (120 min) of 9280 ng·h/mL.
`CC(C)CCOC(=O)OC(C)OC(=O)C1=C(CSc2nnnn2CCN(C)C)CS[C@@H]2[C@H](NC(=O)Cc3csc(N)n3)C(=O)N12` (stereo partly drawn) [Example 2, 1-(3-Methylbutoxycarbonyloxy)ethyl 7β-[2-(2-aminothiazol-4-yl)acetamido]-3-[[[1-(2-dimethylaminoethyl)-1H-tetrazol-5-yl]thio]methyl]ceph-3-em-4-carboxylate] had a Bioavailability in series [1] (120 min) of 90.8%. Besides, the “Plasma level of non-ester compound” value in series [1] (15 min) came to 65800 ng/mL; in series [1] (30 min), 28600 ng/mL; in series [1] (60 min), 9660 ng/mL; in series [1] (120 min) it was 1680 ng/mL. The compound further registered an AUC in series [1] (120 min) of 35300 ng·h/mL.
With `CCC(CC)COC(=O)OC(C)OC(=O)C1=C(CSc2nnnn2CCN(C)C)CS[C@@H]2[C@H](NC(=O)Cc3csc(N)n3)C(=O)N12` (stereo partly drawn) [Example 4, 1-(2-Ethylbutoxycarbonyloxy)ethyl 7β-[2-(2-aminothiazol-4-yl)acetamido]-3-[[[1-(2-dimethylaminoethyl)-1H-tetrazol-5-yl]thio]methyl]ceph-3-em-4-carboxylate], in series [1] (120 min), the Bioavailability was 83.6%. Also, the “Plasma level of non-ester compound” value turned out to be 43900 ng/mL in series [1] (15 min), 39500 ng/mL in series [1] (30 min), 8730 ng/mL in series [1] (60 min) and 220 ng/mL in series [1] (120 min). Moreover, the exposure (AUC) in series [1] (120 min) amounted to 32400 ng·h/mL.
Consider `CCCC(C)COC(=O)OC(C)OC(=O)C1=C(CSc2nnnn2CCN(C)C)CS[C@@H]2[C@H](NC(=O)Cc3csc(N)n3)C(=O)N12` (stereo partly drawn) [Example 6, 1-(2-Methylpentyloxycarbonyloxy)ethyl 7β-[2-(2-aminothiazol-4-yl)acetamido]-3-[[[1-(2-dimethylaminoethyl)-1H-tetrazol-5-yl]thio]methyl]ceph-3-em-4-carboxylate], for which the Bioavailability in series [1] (120 min) was 80.1%. Moreover, the “Plasma level of non-ester compound” value in series [1] (15 min) is 50200 ng/mL; in series [1] (30 min), 31000 ng/mL; in series [1] (60 min), 7310 ng/mL; in series [1] (120 min), 2860 ng/mL. This compound also came in with an AUC in series [1] (120 min) of 31100 ng·h/mL.
With `CC(OC(=O)OCC(C)(C)C)OC(=O)C1=C(CSc2nnnn2CCN(C)C)CS[C@@H]2[C@H](NC(=O)Cc3csc(N)n3)C(=O)N12` (stereo partly drawn) [Example 7, 1-(2,2-Dimethylpropoxycarbonyloxy)ethyl 7β-[2-(2-aminothiazol-4-yl)acetamido]-3-[[[1-(2-dimethylaminoethyl)-1H-tetrazol-5-yl]thio]methyl]ceph-3-em-4-carboxylate], the Bioavailability in series [1] (120 min) was found to be 92.0%. For the same compound, the “Plasma level of non-ester compound” value in series [1] (15 min) came out at 65700 ng/mL; in series [1] (30 min) it was 34500 ng/mL; in series [1] (60 min) it was 7230 ng/mL; in series [1] (120 min) it was 1860 ng/mL. The AUC in series [1] (120 min) was 35700 ng·h/mL.
In the case of `CCCC(C)OC(=O)OC(C)OC(=O)C1=C(CSc2nnnn2CCN(C)C)CS[C@@H]2[C@H](NC(=O)Cc3csc(N)n3)C(=O)N12` (stereo partly drawn) [Example 8, 1-(1-Methylbutoxycarbonyloxy)ethyl 7β-[2-(2-aminothiazol-4-yl)acetamido]-3-[[[1-(2-dimethylaminoethyl)-1H-tetrazol-5-yl]thio]methyl]ceph-3-em-4-carboxylate], in series [1] (120 min), the Bioavailability was 110.6%. The “Plasma level of non-ester compound” value in series [1] (15 min) worked out at 62700 ng/mL; in series [1] (30 min), 48900 ng/mL; in series [1] (60 min), 11200 ng/mL; in series [1] (120 min), 860 ng/mL. In series [1] (120 min), this compound returned an AUC of 42500 ng·h/mL.
Compound `CN(C)CCn1nnnc1SCC1=C(C(=O)O)N2C(=O)[C@@H](NC(=O)Cc3csc(N)n3)[C@H]2SC1` [compound [II], 7β-[2-(2-aminothiazol-4-yl)acetamido]-3-[[[1-(2-dimethylaminoethyl]-1H-tetrazol-5-yl]thio]methyl]ceph-3-em-4-carboxylic acid] displayed a Bioavailability in series [1] (sc, 120 min) of 100%. In addition, the results for the antibacterial activity result in series [2], in series [3] and in series [4] were “potent antibacterial activity”, “strong antibacterial activity” and “potent antibacterial activity”, respectively.
